From US20040208944A1, “Compositions and methods against inflammatory processes” (priority 2002, published 2004)

Legend:
HT 29 cells = experiment: PGE2 synthesis in HT29 cells treated with α-CH2-γ-butyrolactone with and without TNF-α; format: cell-based, human; conditions: for pg PGE2/ml of medium + TNF-α / PGE2 % of control − TNF-α / pg PGE2/ml of medium − TNF-α: 21 h; for pg PGE2/ml of medium + TNF-α / PGE2 % of control + TNF-α: TNF-α 10 ng/ml for 6 h; for PGE2 % of control − TNF-α / pg PGE2/ml of medium − TNF-α: without TNF-α; for PGE2 % of control + TNF-α: relative to methanol control without TNF-α (control + TNF-α = 730)
Experimental: To this end, cells were cultured and passed in Mc Coy's 5A medium supplemented with arachidonic acid ([…]) and bovine serum albumin (0.01%). Cells were treated by alpha-methylen-gamma-butyrolactone (dissolved in methanol) at the following doses: 15, 30, 60 microM or by solvent alone during 21 h including or not stimulation with TNF-alpha (10 ng/ml) for 6 h. PGE2 analysis was performed using an Elisa test on a medium sample.

COX-1 = COX-1 (Homo sapiens, UniProt P23219); experiment: Stressgen StressXpress cyclooxygenase activity kit, COX-1; format: biochemical; conditions: for COX-1 activity (RLU): vehicle 4115 RLU
Experimental: (§1) The Stressgen StressXpress™ cyclooxygenases activity Kit provides a method to measure specifically cyclooxygenases COX-1 and COX-2 in a variety of biological fluids. The kit uses a specific chemiluminescent substrate (aromatic hydrocarbon molecule) to detect the peroxidative activity of COX enzymes. […] Light emission begins immediately and chemiluminescent signal (Relative Luminescence Units—RLU—is measured after 30 minutes (luminometer Tecan). The amount of light emitted is directly proportional to the COX activity.

COX-2 = molecular target: T1, COX-2 (Homo sapiens, UniProt P35354); experiment: Stressgen StressXpress cyclooxygenase activity kit, COX-2; format: biochemical
T1 sequence (P35354 18-604): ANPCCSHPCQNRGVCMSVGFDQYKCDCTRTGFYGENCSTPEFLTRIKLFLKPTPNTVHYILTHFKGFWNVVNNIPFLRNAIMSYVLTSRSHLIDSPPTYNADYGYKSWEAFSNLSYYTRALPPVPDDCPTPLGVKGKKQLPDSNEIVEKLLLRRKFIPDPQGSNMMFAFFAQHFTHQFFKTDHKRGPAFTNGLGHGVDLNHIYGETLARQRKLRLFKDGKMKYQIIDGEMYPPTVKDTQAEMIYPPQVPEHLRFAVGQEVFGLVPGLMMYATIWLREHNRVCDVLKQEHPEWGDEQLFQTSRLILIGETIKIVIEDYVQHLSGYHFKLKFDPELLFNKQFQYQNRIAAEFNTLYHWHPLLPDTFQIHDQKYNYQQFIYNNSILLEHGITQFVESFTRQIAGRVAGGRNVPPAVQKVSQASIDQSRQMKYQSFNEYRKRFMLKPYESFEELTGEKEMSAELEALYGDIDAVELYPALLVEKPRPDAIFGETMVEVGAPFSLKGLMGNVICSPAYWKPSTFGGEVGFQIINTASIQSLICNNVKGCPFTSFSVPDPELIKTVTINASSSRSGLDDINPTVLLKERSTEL
Experimental: as §1

[1] = tested on: COX-2 expression in HT29 cells; experiment: Western blot of COX-2 expression in HT 29 cells; format: cell-based, human; conditions: FIG. 1
Experimental: Western blot analysis: cells lysate were prepared by treating HT 29 cells (treated as above for PGE-2 determinations, i.e. in presence or absence of TNF-alpha and with or without α-CH2-γ-butyrolactone) with lysis buffer (150 mM NaCl, 10 mM Tris HCl pH 8, 1% Tween 20, EDTA pH 8 1 mM, proteases inhibitors, PEFA, (Merck), DETC (Aldrich)). Lysates were sonicated for 5 s, and centrifugated at 10000 g for 5 min. Proteins concentration were estimated by the Bradford method which was standardized using bovine serum albumine.
Whole cell extracts (25 μg) were boiled in Laemmli sample buffer and resolved by SDS-PAGE on 10% gel using the discontinuous polyacrylamide gel system. Non specific binding sites were blocked by incubating the membrane in 5% dried milk phosphate buffered saline solution containing 0.1% of tween-20 overnight at 4° C. Blots were hybridized in a 1:1000 dilution of a goat polyclonal anti COX-2 and also COX-1 antibody (C-20, Santa Cruz Biotechnology) in 5% milk PBS for 1 h at room temperature followed by 1 h of washing in 1% milk PBS. Subsequently, blots were probed with a secondary donkey anti-goat antibody horseradish peroxidase conjugated. After washing for 1 h, the complex was detected using ECL Western blotting reagents (Amersham)

COX-1, sequence (P23219 24-599): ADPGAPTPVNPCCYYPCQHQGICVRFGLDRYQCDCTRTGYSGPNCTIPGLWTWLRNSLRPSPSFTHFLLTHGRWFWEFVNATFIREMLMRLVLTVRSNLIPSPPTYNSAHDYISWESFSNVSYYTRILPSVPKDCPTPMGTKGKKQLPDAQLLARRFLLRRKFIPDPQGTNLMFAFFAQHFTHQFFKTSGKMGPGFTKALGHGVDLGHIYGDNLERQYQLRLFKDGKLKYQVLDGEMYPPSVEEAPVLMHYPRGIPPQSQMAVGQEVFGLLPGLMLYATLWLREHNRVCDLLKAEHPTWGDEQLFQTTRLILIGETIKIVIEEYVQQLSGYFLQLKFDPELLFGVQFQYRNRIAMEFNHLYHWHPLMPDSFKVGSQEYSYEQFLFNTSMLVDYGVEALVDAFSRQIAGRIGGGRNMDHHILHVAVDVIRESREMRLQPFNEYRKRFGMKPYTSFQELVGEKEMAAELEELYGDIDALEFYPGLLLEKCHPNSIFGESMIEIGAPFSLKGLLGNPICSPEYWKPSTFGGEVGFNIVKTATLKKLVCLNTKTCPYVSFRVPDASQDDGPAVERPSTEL

SMILES | pg PGE2/ml of medium + TNF-α (HT 29 cells; 15 μM) [pg/mL] | PGE2 % of control − TNF-α (HT 29 cells; 15 μM) | pg PGE2/ml of medium − TNF-α (HT 29 cells; 15 μM) [pg/mL] | PGE2 % of control + TNF-α (HT 29 cells; 15 μM) | pg PGE2/ml of medium + TNF-α (HT 29 cells; 30 μM) [pg/mL] | PGE2 % of control − TNF-α (HT 29 cells; 30 μM) | pg PGE2/ml of medium − TNF-α (HT 29 cells; 30 μM) [pg/mL] | PGE2 % of control + TNF-α (HT 29 cells; 30 μM) | pg PGE2/ml of medium + TNF-α (HT 29 cells; 60 μM) [pg/mL] | PGE2 % of control − TNF-α (HT 29 cells; 60 μM) | pg PGE2/ml of medium − TNF-α (HT 29 cells; 60 μM) [pg/mL] | PGE2 % of control + TNF-α (HT 29 cells; 60 μM) | COX-1 activity % of control (COX-1; 40 μM) | COX-1 activity (RLU) (COX-1; 40 μM) | COX-2 activity % of control (COX-2; 40 μM) | COX-2 activity (RLU) (COX-2; 40 μM, vehicle 26450 RLU) | inhibition of COX-2 activity (in words) (COX-2; cyclooxygenase activity kit) | COX-2 expression (Western blot, in words) [1] | COX-1 activity % of control (COX-1; 1 mM) | COX-1 activity (RLU) (COX-1; 1 mM)
C=C1CCOC1=O [α-CH2-γ-butyrolactone, α-methylene-γ-butyrolactone] | 13286 | 108 % of control | 2814 | 512 % of control | 9349 | 76 % of control | 1970 | 360 % of control | 1310 | 14 % of control | 1144 | 50 % of control | 117 % of control | 4807 | 49 % of control | 12823 | inhibit specifically and with high potency COX-2 activity | inhibition of COX-2 expression | – | –
CS(=O)(=O)Nc1ccc([N+](=O)[O-])cc1OC1CCCCC1 [NS-398, reference compound] | – | – | – | – | – | – | – | – | – | – | – | – | – | – | – | – | – | – | 99 % of control | 4063
